Assay results reported in patent US12655101B2, “Small molecules with antibacterial activity” (NEW MEXICO TECH UNIVERSITY RESEARCH PARK CORPORATION, priority 2021, dated 2026).

Columns and labels:
Type in all cases: cell-based
red blood cells = assay: Red blood cell lysis capacity
Method: Diluted red blood cells were aliquoted into clear tissue culture media−/+addition of 40% human serum and added either 2 μL or 40 μL of cell lysis buffer (LB), 50 μM, 40 μM, 20 μM, 15 μM, 10 μM, or 5 μM Compound 14. The samples were agitated by vortex and spun by centrifuge.

A. baumannii ATCC 15151 [1] = assay: DNA degradation (agarose gel), drug-sensitive strain; settings: 1.5% H2O2, 10 μg/mL ciprofloxacin, 100 μM Compound 25; 3 hours
[2] = test system: A. baumannii ATCC BAA-1797; assay: Synergy of gentamicin and Compound 25, colony counts; settings: 18 hours
Method: Cells were cultured using methods described above. 500 μL of the adjusted bacterial cell suspensions were placed into borosilicate glass tubes, where the cell suspensions were treated with 100 μg/mL gentamicin, 2 μM Compound 25, or a combination of 100 μg/mL gentamicin plus 2 μM Compound 25. The culture tubes were incubated for 18 hours at 37° C. Colony counts were performed by 10-fold serially diluting the samples into fresh MHB and drip-streaking 10 μL from each dilution series onto MHA. The plates were incubated at 37° C. for 18 hours before the CFU/mL were determined by visual cell counts.
500 μL aliquots of the adjusted bacterial cell suspensions were placed into borosilicate glass tubes, where the cell suspensions were treated with 50 μg/mL gentamicin, 2 μM Compound 25, or a combination of 50 μg/mL gentamicin plus 2 μM Compound 25. The culture tubes were incubated for 18 hours at 37° C.

E. coli = assay: Filamentation with ciprofloxacin and Compound 25 on E. coli; settings: for cell morphology and growth: 16 hours
Method: E. coli: E. coli was grown from a glycerol stock by placing a small volume of cells onto a MHA plate. The MHA plate was incubated overnight at 37° C. A single colony was subsequently used to inoculate MHB to obtain a bacterial broth suspension. The MHB broth suspension was grown at 37° C. on a rotary shaking incubator (100 rpm) for 12 hours. The bacterial cell concentration was adjusted to ˜1×10^7 CFU/mL in MHB using OD at 595 nm. […] The culture tubes were incubated for 16 hours at 37° C. After 16 hours incubation, took 3 μL of cells from each well and plated on microscope slide to observe the following: […]

A. baumannii ATCC 15151 [3] = assay: Filamentation with ciprofloxacin and Compound 25 on A. baumannii; settings: for cell morphology and growth: 18 hours
Method: A. baumannii ATCC 15151: […] The culture tubes were incubated for 18 hours at 37° C. After 18 hours incubation, took 3 μL of cells from each well and plated on microscope slide to observe the following: […]

[4] = test system: A. baumannii ATCC BAA-1797; assay: DNA degradation (agarose gel), drug-resistant strain; settings: drug-resistant ATCC BAA-1797; 10 μg/mL ciprofloxacin, 100 μM Compound 25; 5 hours
[5] = test system: A. baumannii ATCC BAA-1797 in a culture of HeLa cells; assay: Selective killing of A. baumannii in a culture of HeLa cells; settings: 60 μM Compound 26
Method: In a separate experiment, the ability of […] to selectively kill A. baumannii ATCC BAA-1797 in a culture of HeLa cells in 40% FBS was studied. Cells were trypsinized, counted (cells/mL) using a hemocytometer, and plated (2×10^5 HeLa cells/100 μL) in tissue culture-treated 24-well plate in DMEM+1% penicillin/streptomycin (P/S)+10% FBS. Cells were adhered overnight at 37° C. in a humidified incubator with 5% CO2. Media was replaced the following day with DMEM+40% or 50% FBS. Selected wells were treated with 60 μM Compound 26, which included HeLa only and HeLa plus 10,000 A. baumannii ATCC BAA-1797—that had been previously grown in MHB for 12 hours in 37° C.—in the appropriate wells. Cells were incubated further for 18 hours at 37° C. 20% v/v MTT reagent (5 mg/mL stock) was added, and the samples were incubated for 10 minutes to observe viable bacteria. Plates were counted after a visual viability assessment.
Cells were trypsinized, counted (cells/mL) using a hemocytometer, and plated (2×10^5 HeLa cells/100 μL) in tissue culture-treated 24-well plate in DMEM+1% penicillin/streptomycin (P/S)+10% FBS. Cells were adhered overnight at 37° C. in a humidified incubator with 5% CO2. Media was replaced the following day with DMEM+40% or 50% FBS. […] Plates were counted after visual viability assessment.

E. coli pUC18 = assay: Nitrocefin β-lactamase assay (outer membrane disruption); settings: 10 μM melittin; 10 μg/mL PME; 6, 12, 24 μM Compound 25 and 26; 100 μM Compound 27; 50 μM Compound 15; 30 minutes
Method: E. coli pUC18 was grown from a glycerol stock by placing a small volume of cells onto a MHA plate. The MHA plate was incubated overnight at 37° C. A single colony was subsequently used to inoculate MHB+100 μg/mL ampicillin to obtain a bacterial broth suspension. The MHB broth suspension was grown at 37° C. on a rotary shaking incubator (100 rpm) for 12 hours. The cells were washed 3× by centrifuging and washing with 1 mL medium 200. The washed bacterial cell concentration was adjusted to ˜1×10^7 CFU/mL in medium 200 using OD at 595 nm. The cells were treated cells with 10 μM melittin; 6, 12, 24 μM Compound 25; 6 μM, 12 μM, 24 μM Compound 26; 100 μM Compound 27; 50 μM Compound 15; and 10 μg/mL PME. The cells were incubated at 37° C. for 30 minutes; added 50 μM nitrocefin and incubated 10 minutes at 37° C.
pUC18 E. coli carry an ampicillin resistance gene and produce β-lactamase.

[6] = 20 μM Compound 25+25 ng/mL ciprofloxacin
[7] = […] Compound 25+50 ng/mL ciprofloxacin

## Nc1cccc2[nH]cc(/C=N/Nc3ccc(Cl)cc3)c12 [Compound 14, (E)-3-((2-(4-chlorophenyl)hydrazineylidene)methyl)-1H-indol-4-amine]
Red blood cells; 40% additional human serum, 50 μM Compound 14
  red blood cell lysis: did not lyse cells
Red blood cells; no additional serum, 40 μM Compound 14
  red blood cell lysis: lysed some red blood cells

## Brc1ccc(N/N=C/c2c[nH]c3cccc(OCc4ccccc4)c23)cc1.Cl [Compound 25, (E)-2-((4-(benzyloxy)-1H-indol-3-yl)methylene)-1-(4-bromophenyl)hydrazin-1-ium chloride]
A. baumannii ATCC 15151 [1]
  DNA degradation: did not degrade DNA
[2]; 50 μg/mL gentamicin+2 μM Compound 25
  synergy, full cell death: 4 orders of magnitude
[2]; 100 μg/mL gentamicin+2 μM Compound 25
  synergy, full cell death: 8 orders of magnitude
E. coli; [6]
  inhibition of ciprofloxacin-induced filamentation: only slightly inhibited
  cell morphology and growth: elongated in morphology and growth inhibition was observed
E. coli; single agent: 25 ng/mL ciprofloxacin or 20 μM Compound 25
  cell morphology and growth: morphologically normal and growth inhibition was observed
A. baumannii ATCC 15151 [3]; [7]
  inhibition of ciprofloxacin-induced filamentation: only slightly inhibited
  cell morphology and growth: elongated in morphology and growth inhibition was observed
A. baumannii ATCC 15151 [3]; single agent: 50 ng/mL ciprofloxacin or […] Compound 25
  cell morphology and growth: morphologically normal and full growth was observed
[4]
  ds DNA damage: Neither Ciprofloxacin Nor Compound 25 Caused ds DNA Damage

## Cl.Clc1ccc(N/N=C/c2c[nH]c3cccc(OCc4ccccc4)c23)cc1 [Compound 26, (E)-2-((4-(benzyloxy)-1H-indol-3-yl)methylene)-1-(4-chlorophenyl)hydrazin-1-ium]
[5]; 40% FBS and 50% FBS
  kill of A. baumannii ATCC BAA-1797 in HeLa co-culture: 4 logs
[5]; 18 hours, 40% or 50% FBS
  selective eradication of A. baumannii from HeLa cells: selectively eradicated A. baumannii ATCC BAA-1797 from HeLa cells, leaving HeLa cells unharmed

## Cl.Fc1ccc(N/N=C/c2c[nH]c3cccc(OCc4ccccc4)c23)cc1 [Compound 27, (E)-2-((4-(benzyloxy)-1H-indol-3-yl)methylene)-1-(4-fluorophenyl)hydrazin-1-ium]
E. coli pUC18
  outer membrane disruption (β-lactamase leakage, nitrocefin colour): caused outer membrane disruption
